# Tests used:
# [1] = test system: experimental autoimmune uveitis (EAU); assay: Histological scoring of EAU (H&E sections); type: in vivo, C57BL/6 (WT) mice
# [2] = test system: NF-κB P65; assay: NF-κB P65 in retinal nuclear extracts (ELISA); type: in vivo, Lewis rats; conditions: AICAR pretreatment; 3 hours after LPS; n=9; PBS-treated EIU 27.3±11.0, control 8.3±8.6
# Method: Male Lewis rats ranging from 6-8 weeks old (Charles River, Wilmington, Mass.) were used for these studies. To study the effects of AICAR pretreatment, AICAR and PBS (for placebo treatment) were delivered via intraperitoneal injection of AICAR (50 mg/kg or 100 mg/kg body weight; Sigma) diluted in 150 μl PBS or equal volume of PBS at 6 hours before and at the same time as LPS injection. Four experimental groups of rats were compared: (1) Normal: no treatment (2) AICAR: normal rats treated with AICAR 6 hours before examination; (3) LPS: EIU rats treated with PBS; (4) LPS+AICAR: EIU rats treated with AICAR. Two additional groups of rats were used to study the effects of AICAR (50 mg/kg) given either at the same time as LPS injection or at 6 hours after LPS injection. To investigate the LPS-induced signal transduction pathway, NF-κB P65 protein levels translocated into the nuclei of retinal cell extracts were examined 3 hours after LPS injection. For the measurement of NF-κB activity, pooled retinas from six normal rats, nine EIU PBS-treated rats, and nine EIU AICAR-treated rats were analyzed. […] The amount of NF-κB in the nuclear extracts was analyzed by measuring the p65 protein levels with a NF-κB detection kit (p65 Transcription Factor Assay kit; Active Motif, Carlsbad, Calif.). NF-κB concentration was calculated and corrected for protein concentration.
# [3] = test system: endotoxin-induced uveitis (EIU); assay: Cell count and total protein concentration in aqueous humor of EIU rats; type: in vivo, Lewis rats
# Method: Male Lewis rats ranging from 6-8 weeks old (Charles River, Wilmington, Mass.) were used for these studies. To study the effects of AICAR pretreatment, AICAR and PBS (for placebo treatment) were delivered via intraperitoneal injection of AICAR (50 mg/kg or 100 mg/kg body weight; Sigma) diluted in 150 μl PBS or equal volume of PBS at 6 hours before and at the same time as LPS injection. Four experimental groups of rats were compared: (1) Normal: no treatment (2) AICAR: normal rats treated with AICAR 6 hours before examination; (3) LPS: EIU rats treated with PBS; (4) LPS+AICAR: EIU rats treated with AICAR. Two additional groups of rats were used to study the effects of AICAR (50 mg/kg) given either at the same time as LPS injection or at 6 hours after LPS injection. Aqueous humor was collected by anterior chamber puncture with a 30-gauge needle 24 hours after LPS injection. For cell counting, 1 μl of aqueous humor was diluted with an equal amount of Trypan-blue solution, and the cells were counted with a hematocytometer under a light microscope. A separate sample of aqueous humor was centrifuged at 2500 rpm for 5 minutes at 4° C. and the total protein concentration was measured by Lowry methods using a Bio-Rad protein assay kit (Hercules, Calif.). Aqueous samples were stored on ice until used; cell counts and total protein concentrations were measured on the day of sample collection.
# [4] = test system: TNF-α, IL-6 and IFN-γ in the retina; assay: Retinal cytokine mRNA (real-time PCR) and protein (ELISA) in EAU mice; type: in vivo, C57BL/6 (WT) mice
# [5] = test system: lymph node (LN) cells; assay: Proliferation, cytokine production and transcription factor expression of LN cells from AICAR-treated EAU mice; type: in vivo, C57BL/6 (WT) mice
# Method: To extract LN cells, draining lymph nodes from 6 to 8 mice were isolated at sixteen days after immunization and pooled. Single cell suspensions were made using a cell strainer (BD, Franklin Lakes, N.J.). CD4 T cell-enriched fractions were prepared using CD4 Microbeads (Miltenyi Biotec GmbH, Bergisch Gladbach, Germany), and purity of the suspensions was determined by staining with anti-CD4 antibody (GK1.5, Biolegend, San Diego, Calif.) and flow cytometry. All experimental samples of CD4 T cell-enriched fractions were at least 95% CD4-positive. To measure cell proliferation, LN cells were resuspended at 5×10^5 cells per 200 μl of medium in 96-well flat-bottom plates. Cells were incubated for 72 hours and proliferation during the last 12 hours was measured by using a bromodeoxyuridine (BrdU) cell proliferation assay kit (Millipore, Billerica, Mass.). Supernatant in the culture medium was collected at 48 hours and cytokine production in the supernatant was measured by ELISA using the Quantikine mouse IFN-γ, IL-4, IL-10 and IL-17 kits (R&D system, Minneapolis, Minn.). To measure the expression of T-bet and RORγt, real-time PCR was carried out as described above using the following TaqMan gene expression assays: T-bet (Mm00450960_m1) and RORγt (Mm01261022_m1). Quantitative expression data were acquired and analyzed with a Step One Plus real-time PCR system (Applied Biosystems). In order to assess the in vivo effect of AICAR on the development of IRBP-reactive T cells, LN cells from control and AICAR-treated mice were stimulated with either IRBP or a non-specific T cell stimulator, anti-CD3. Proliferative response was measured with BrdU incorporation. […] In comparison, when the cells were treated with anti-CD3, there was no difference in T cell proliferation between the AICAR treated and control mice (FIG. 8B).
# [6] = test system: splenic DCs; assay: Splenic DC co-stimulatory molecule expression in EAU mice (FACS); type: in vivo; conditions: AICAR-treated vs non-treated EAU mice; twelve days after immunization
# Method: To investigate whether DC maturation was affected by AICAR, splenic DCs were isolated from EAU mice and analyzed for co-stimulatory molecule expression. Specifically, spleen cells from 4 to 5 EAU mice were pooled at twelve days after immunization and incubated with the following monoclonal antibodies: anti-CD11c (N418), CD40 (3/23), CD80 (16-10A1), CD86 (GL-1), I-A^b (AF6-120.1) (Biolegend). Spleen cells were gated on the basis of forward and side scatter profile and propidium iodide or DAPI exclusion. Samples of 1×10^6 cells were analyzed by LSR (Becton Dickinson, Franklin Lakes, N.J.).
# [7] = AICAR 200 mg/kg treated EAU mice vs control EAU mice
# [8] = AICAR-treated EAU mice, real-time PCR
# [9] = LN cells from AICAR-treated EAU mice, ELISA
structure (smiles),measurement,setting,value
"NC(=O)c1ncn([C@@H]2O[C@H](CO)[C@@H](O)[C@H]2O)c1N [AICAR, 5-aminoimidazole-4-carboxamide-1-β-d-ribofuranoside]",EAU mean pathologic score,"[1]; AICAR 200 mg/kg i.p. daily day 0 to 21, day 21, scale 0-4, control 1.65±0.68",0.53±0.73
same,"EAU mean pathologic score, effector phase treatment","[1]; AICAR administered from day 8 to 21 after immunization, n=8, controls 1.03±0.75",0.13±0.27
same,NF-κB P65 protein level in retinal nuclear extracts,[2],18.2±3.9 ng/mg total protein
same,Total protein concentration in aqueous humor,"[3]; AICAR 50 mg/kg pretreatment, 24 h after LPS, LPS only 18.3",7.9 mg/mL
same,Number of infiltrating cells in aqueous humor,"[3]; AICAR 50 mg/kg pretreatment, 24 h after LPS, n=11, LPS only 22.0×10^5",1.4×10^5 cells/ml
same,Cell infiltration and protein levels in aqueous humor of AICAR-only-treated rats,"[3]; normal rats, AICAR only, n=6",did not show any significant infiltration of cells nor a significant increase in protein levels
same,IFN-γ mRNA in retina,[4]; [7],significantly reduced
same,IL-6 mRNA in retina,[4]; [7],significantly reduced
same,TNF-α mRNA in retina,[4]; [7],significantly reduced
same,IL-6 protein level in retina,"[4]; AICAR 200 mg/kg treated EAU mice, 21 days after immunization, ELISA",suppressed
same,RORγt mRNA expression in CD4 T cells,[5]; [8],suppressed
same,T-bet mRNA expression in CD4 T cells,[5]; [8],suppressed
same,"T cell proliferation (BrdU), anti-CD3 stimulation",[5]; LN cells from AICAR treated vs control mice,no difference
same,IFN-γ production by LN cells,[5]; [9],significantly suppressed
same,IL-10 production by LN cells,[5]; [9],significantly suppressed
same,IL-17 production by LN cells,[5]; [9],significantly suppressed
same,"Antigen-specific T cell proliferation (BrdU), IRBP stimulation","[5]; LN cells from AICAR-treated vs untreated EAU mice, dose-dependent manner",suppressed
same,"CD40, CD80, CD86 and I-A^b expression on splenic DCs",[6],no difference

# Source: US10842806B2, “Methods for treating ocular inflammatory disorders” (Massachusetts Eye and Ear Infirmary, priority 2011, dated 2020)
